Measurements published in US20250034185A1 (priority 2021, published 2025).

Experiments:
[1] = Pharmacokinetic study 1: P5P and P5P analog 16, IV and PO, rats; type: in vivo; conditions: dosed orally, rat
Method: Pharmacokinetic study 1 was carried out (see Example 98: P5P analog 16i: Pharmacokinetic study 1) to assess if P5P analog 16i was able to be converted to P5P and increase plasma P5P, to assess if P5P analog 16i was orally available, and to compare the ability of PO P5P analog 16i and PO P5P to increase plasma P5P.
In order to isolate the effects of the administered P5P analog 16i on pyridoxine (PL) and P5P (PLP) levels, the basal levels of both PL and P5P were subtracted from the measured concentrations. Baseline subtraction was accomplished by subtracting pre-dose concentrations of either PL or P5P from the subsequent values in the time course.
Formulation—Both P5P (pyridoxal-5-phosphate) and P5P analog 16 were formulated in phosphate buffered saline (PBS) as homogenous solutions on the day of dosing.
Animals and group—13 CD ♂ rats with an approx. weigh of ˜250 g were used. Animals were split into 4 groups+1 extra (n=3 for each group). Animals were allowed a 5-day acclimatization period in animal facility. The animal room environment was controlled (temperature 22 f 0.2° C.; relative humidity 55 f 25%; 12 hours light/dark cycle, and 12 air changes per hour). A standard certified commercial rodent chow was provided to the animals ad libitum. Procedures involving the care and use of animals in this study were reviewed and approved by the Institutional Animal Care and Use Committee (IACUC) prior to conduct. One day prior to dosing on D-1, Rats were divided in 4 groups (Table 7). Rats in Group 3 and 4 were fasted overnight (12-14 hours) with access to water.
On day 0, animals were identified, weighted, and dosed by intravenous (IV) injection or oral gavage (PO) as described in Table 7. Food tray were returned to Group 3 and 4, 2 hrs post dosing.
(§1) Blood was collected at indicated time points below for all groups: Pre-dose, 5′, 15′, 30′, 1 h, 2 h, 4 h, 6 h, 8 h, 24 h.
(§2) About 150 μL of blood was collected at indicated time points below using K2EDTA tubes. Blood was kept on ice until centrifugation at 4° C. at 6000 RCF for 10 min. Plasma was collected and kept on dry ice until transferred at −80° C.

plasma enzymes = conditions: Sprague Dawley, rat
[2] = Pharmacokinetic study 4: SP isomer, RP isomer and D-amino acid prodrug, IV and PO, rats; type: in vivo; conditions: rat, IV (and PO)
From the text: The goal of the study was to compare the pharmacokinetic (PK) profiles of the S-isomer (16i) and the R-isomer (16iii) at the phosphorus center, and to assess the effect of using the D-amino acid (16i with SP and RP isomers) on PK profile.
In order to isolate the effects of the administered agents on PL and PLP levels, the basal levels of both PL and PLP subtracted from the measured concentrations. Baseline subtraction was accomplished by subtracting pre-dose concentrations of either PL or PLP from the subsequent values in the time course.
Formulation—Prodrugs 16i (SP isomer), 16i (RP isomer) and 16i′ (16i with D-amino acid racemate) were formulated in phosphate buffered saline (PBS) as a homogenous solution on the day of dosing.
(§3) Animals and group—19 CD ♂ rats with an approx. weigh of ˜250 g were used. Animals were split into 6 groups+1 extra (n=3 for each group). Animals were allowed a 5-day acclimatization period in animal facility. The animal room environment was controlled (temperature 22 f 0.2° C.; relative humidity 55 f 25%; 12 hours light/dark cycle, and 12 air changes per hour). A standard certified commercial rodent chow was provided to the animals ad libitum. Procedures involving the care and use of animals in this study were reviewed and approved by the Institutional Animal Care and Use Committee (IACUC) prior to conduct. One day prior to dosing on D-1, Rats were divided in 6 groups (Table 1). Animals were identified and bled for pre-dose blood. Rats in Group 4, 5 and 6 were fasted overnight (12-14 hours) with access of water.
On day 0, animals were weighted, and dosed by IV injection or by oral gavage as described in Table 10. Food tray were returned to Group 4, 5 and 6 two hours post dosing.
as §1, §2

[3] = Single ascending dose study of P5P analog 16, oral, rats; type: in vivo; conditions: rat
Method: Single ascending dose studies were carried out (Example 97: P5P analog 16i: single ascending dose study) to assess the maximum tolerability of a P5P analog (compound of formula 16i) in rats under 4 different doses under one single administration via Per Os (P.O.—oral) route, and to inform the linearity of pharmacokinetics (PK) with multiple dosing.
In order to isolate the effects of the administered compound of formula 16i on pyridoxine (PL) and P5P (PLP) levels, the basal levels of both PL and P5P were subtracted from the measured concentrations. Baseline subtraction was accomplished by subtracting pre-dose concentrations of either PL or P5P from the subsequent values in the time course.
Formulation—P5P analog 16 was formulated in 1% methylcellulose in water on the day of dosing.
as §3, with “group—17” for “group—19”, “4” for “6”, “(n=4” for “(n=3”, “6).” for “1).”, “all groups” for “Group 4, 5 and 6”
On day 0, animals in groups 1-2-3 were weighed, and dosed by oral gavage as described in Table 6. Each remaining dosing solutions were stirred (or slightly vortexed), a 50 ul sample were collected and placed in separate tube and both vials immediately frozen on dry ice. Food tray were returned to animals two hours post dosing.
Cage-side observation were done upon dosing, at the end of day, and 24 hrs post dosing (record adverse effect if observed). Animal were weighed again at 24 hrs post dosing.
Blood was collected at indicated time points for all groups at: Pre-dose, 15′, 30′, 1 h, 2 h, 4 h, 6 h, 8 h, 24 h.
as §2

Cc1ncc(CO[P@@](=O)(N[C@@H](C)C(=O)OC(C)C)Oc2ccccc2)c(C=O)c1O [Compound 16i, (S)-Isopropyl 2-((S)-((4-formyl-5-hydroxy-6-methylpyridin-3-yl)methoxy)(phenoxy)phosphorylamino)propanoate]
oral availability of the prodrug (crosses gastrointestinal wall, detectable in circulation) [1]: orally bioavailable | relative P5P formed (plasma enzymes): 100.0% | conversion to PLP in the plasma [2]: readily converted to PLP | T1/2 of PL and PLP as dose was increased ([3]; PO 10-300 mg/kg): increase | plasma PL and P5P concentrations with increasing dose ([3]; PO 10-300 mg/kg): clear dose-dependent increase | dose linearity of plasma PL and PLP (Cmax and AUC) ([3]; PO): dose linearity up to 300 mg/kg | signs of toxicity ([3]; highest dose group 300 mg/kg PO): did not show any signs of toxicity | adverse reactions / clinical signs ([3]; single PO dose 10, 30, 100, 300 mg/kg, observed to 24 hrs): no clinical signs were observed
